From US20090005659A1, “Tissue Ablation by Shear Force for Sampling Biological Fluids and Delivering Active Agents” (priority 2000, published 2009)
Several values for one entry are separate records, joined by “and”; a condition that tells them apart may be missing. Equal values may be shown once.

Key:
female Yorkshire pigs [1] = test: Transdermal delivery of insulin by passive diffusion following shear perforation of the skin; assay type: in vivo, pig
Procedure: Two female Yorkshire pigs of the same body weight range as those in Example 2 were immobilized with anesthetics. The test site on the side of the chest was prepared by clipping lightly off the hair and cleaning with an alcohol wipe. Special care was taken not to damage the skin. Shear perforation of the pig skin was performed with a Remington shaver (Remington Microscreen 1®, Remington, Bridgeport, Conn., USA) by pressing its screen firmly on the skin for about 1 second. This procedure was repeated at an adjacent skin site until 10 cm^2 of the skin was shear-perforated. Only slight erythema was observed on the test site. A drug reservoir patch made of silicone rubber (Silastic® Sheet, Medical Grade, Dow Corning Corp., Midland, Mich., USA) was affixed to the test skin with silicone adhesive (Secure® Adhesive, BT-401, Factor II, Inc., Lakeside, Ariz., USA). […] The thickness of the drug reservoir was 0.5 mm. An insulin solution (0.5 ml, Regular Iletin® II, Insulin Injection, USP, Purified Pork, Eli Lilly and Company, Indianapolis, Ind., USA) was placed into the drug reservoir which covered the shear-perforated skin to allow insulin molecules to enter the pig body through the pores on the stratum corneum driven by insulin concentration gradient. Transdermal insulin delivery was conducted in this way for 50 minutes. Insulin delivery was then terminated by removing the insulin patch. Blood samples were taken from the pigs prior to, during, and after transdermal insulin delivery for determination of blood glucose and insulin concentrations.

pigs = test: Swine glucose monitoring study: subcutaneous fast-acting insulin, blood glucose; assay type: in vivo, pig; details: 2 IU subcutaneous, four pigs
Procedure: A swine study was conducted for glucose measurements in both capillary blood and ISF extracted from the micropores generated by the shear perforation procedure as described in Example 3. Briefly, subcutaneous injections of fast-acting insulin (2 IU, Regular Iletin® II, U-100, Pork, Eli Lilly, Indianapolis, Ind.) were administered to four pigs. […] Glucose changes in the blood were monitored periodically using One Touch® Basic glucose meter (LifeScan, Inc., Milpitas, Calif.) on blood samples from the ear vein. ISF samples were obtained by application of a weak suction to the micropores on the skin with an Asoivenin® suction device (ASPIR, Sannois, France). The ISF samples collected throughout the whole experiment were tested for glucose using both a FastTake® and One Touch® Basic glucose meter blood glucose meters (LifeScan, Inc., Milpitas, Calif.) as wells as an YSI glucose analyzer (Model 2700 Select Biochemistry Analyzer, YSI Inc., Yellow Springs, Ohio). A calibration procedure was conducted for the two home-use glucose meters (i.e., the One Touch® and FastTake® meters) against the YSI glucose analyzer using aqueous glucose solutions of various concentrations.

[2] = test system: intact skin of human and swine; test: Penetration of insulin into intact skin (own experiment, result not shown); assay type: in vivo; details: no shear perforation
Description: The stratum corneum is recognized as the primary barrier to percutaneous absorption of drug applied to the skin surface. The densely structured outmost skin layer consisting of flattened and keratinized dead skin cells provides a formidable permeation barrier to most small and virtually all large compounds. […] Our own experiment confirmed this (result not shown). This example investigates in vivo transdermal delivery of insulin into swine following application of shear perforation to remove the stratum corneum barrier at the test site.

female Yorkshire pigs [3] = test: Subcutaneous injection of insulin (control experiment): blood glucose and plasma insulin profiles; assay type: in vivo, pig; details: four pigs
Description: The subcutaneous administration of insulin provides a dose response to which a comparative measure of transdermally delivered insulin can be made. An insulin dose of 5 IU insulin (Regular Iletin® II, Insulin Injection, USP, Purified Pork, Eli Lilly and Company, Indianapolis, Ind., USA) was subcutaneously injected in the rear mid-ventral area of each of four female Yorkshire pigs (weight: 22-26 kg) with a 1 cc Sub-Q Precision Glide® Needle (Becton-Dickinson and Company, Franklin Lakes, N.J., USA).
As the insulin concentrations went back to its basal concentration (FIG. 5b), the blood glucose concentrations also were gradually returned toward its pre-insulin injection level (FIG. 5a).

In the case of insulin, the blood glucose (female Yorkshire pigs [1]; 0.5 ml insulin solution patch over 10 cm^2 shear-perforated skin, 50 minutes, two pigs, FIG. 6a) is reported as “Drastic reduction in the blood glucose”, the “time for blood glucose concentrations to return to a near normal level” value (female Yorkshire pigs [1]; transdermal insulin over shear-perforated skin, 50 minutes delivery, two pigs) is reported as “about 5 hours” and the “peak plasma insulin concentrations” value (female Yorkshire pigs [1]; transdermal, shear-perforated skin 10 cm^2, one value per pig, FIG. 6b) is reported as 50 μIU/ml and 90 μIU/ml. The “time of peak plasma insulin concentration” value (female Yorkshire pigs [1]; transdermal, shear-perforated skin, peak at the end of delivery) was 50 min, the blood glucose concentration (pigs) was “significant reduction in the blood glucose concentration” and the “penetration into intact skin” value [2] was “cannot penetrate into the intact skin”. For the same substance, the peak insulin concentrations (female Yorkshire pigs [3]; 5 IU insulin subcutaneous injection, plasma, FIG. 5b) was 31-55 μIU/ml and the blood glucose concentration (female Yorkshire pigs [3]; 5 IU insulin subcutaneous, FIG. 5a) was “rapid reduction in blood glucose concentration”.
